The record followed here is patent US12528840B2, “Transcription active complex targeting cancer drug from viral protein sequence” (The Regents of the University of California, priority 2020, dated 2026).

The subject of one test is human CD3 T cells. Put plainly: CD3 T cell proliferation after anti-CD3/28 stimulation, flow cytometry. In kind it is cell-based. The settings on record: 32 μM, 24 hours after 16 hours anti-CD3/28. The protocol: To evaluate the effect of the peptide on human CD3 T cells, CD3 T cells were enriched by magnetic beads (CD3 positive selection beads, Stemcell technology) from PBMC samples from 5 healthy donors and stimulated with anti-CD3/28 tetramer (Stemcell technology) in triplicates for 16 hours before treating with PBS, MBK50 (32 μM) and Mutant peptide (32 μM) for 24 hours. Activated proliferating IRF4^+Ki67^+ CD3 T cells (red square in FIG. 5) in the culture were analyzed by live/dead-red staining (Invitrogen) and intracellular staining with anti-Ki67-FITC (Biolegend) and anti-IRF4-APC (Biolegend) antibodies. A representative flow cytometry profiles are shown in FIG. 5(a) for gating live CD3 T cell population and FIG. 5(b) Ki67 vs IRF4 for the gated live CD3 T cells. For FIG. 5(c-e), the means of triplicate cultures in each experiment for live cells % (c, n=5), total CD3 T cell numbers (d, n=5), and % of Ki67^+ cells (e, n=3) are shown in the top panel. The bottom panel are normalized data to PBS control cultures. P values calculated with Prism using one-way ANOVA with paired comparison. p<0.05 statistically significant.

The next test concerns PEL cells. As to the kind of experiment: PEL cell killing by delivered peptide (MTS live-cell assay). In kind it is cell-based. Conditions: peptide delivered into PEL, a MYC-dependent cancer. The procedure:
FIGS. 1A-H. Viral protein sequence based cancer drug. (FIG. 1A) Discovery of hijacking transcription machinery in KSHV reactivating cells (Chen et al., J. Virol 2017). […] (FIG. 1B) Reporter assay. KSHV ORF50 overexpression inhibits MYC activation. (FIG. 1C) Chromatin immunoprecipitation with Mass Spectrometry. Proteins inducibly interact with both ORF50 and RNA polII are shown. […] (FIG. 1E) Mapping of interacting domain. GST-pull down was performed to identify NCoA2 binding domains. Purified NCoA2 was made from recombinant baculovirus infected cells and KSHV ORF50 deletion proteins were made in E. coli. Peptides are then generated as TAT-fusion for cell penetration. (FIG. 1F) ChIP-seq and RNA-seq. ChIP-seq was performed to identify NCOA2 target genes in primary effusion lymphoma cells. NCoA2 localization is highly associated with active genes and localizes with RNA pol II at enhancer regions. […] The qRT-PCR was performed with specific primers. (FIG. 1H) Gene set enrichment analyses (GSEA). RNA sequencing was performed with peptide-treated PEL cells. […] (FIG. 1I) The peptide drug. Wt peptide or mutant peptide was incubated in culture media. Forty-eight hours later, live cells were measured by applying MTS. Cell viability was compared with no-treated samples. No treated sample was set as 1.
For orientation: Tetrazolium assays rely on reduction of a dye to a coloured formazan, in cell work by metabolically active cells.

Another test relates to BC-1 cells. Put plainly: SLAM-seq, active transcription of cellular genes. The settings on record: 24 μM, 30 min then 4sU 1 hour, BC-1 (FIG. 9: BCBL-1 and BC1). In kind it is cell-based. The protocol:
FIG. 9. Profiling Peptide targets with Thiol(SH)-linked alkylation for the metabolic sequencing of RNA (SLAM seq). Differences in active transcription in presence of peptide drug was examined. […] Total RNA-sequence performed 24 hours after drug incubation.
Thiol(SH)-linked alkylation for the metabolic sequencing of RNA (SLAM seq), an orthogonal-chemistry-based RNA sequencing technology detects 4-thiouridine (s4U) incorporation in RNA species at single-nucleotide resolution. Using SLAM-seq method, BC-1 cells were incubated with peptide drug and peptide with three amino acid substitute to alanine was used as a control peptide. Peptide drug was incubated in BC-1 cell culture (24 μM) and after 30 min drug incubation, 4sU (300 μM in final concentration) was added into culture media for 1 hour. Total RNA was isolated in the end of 1 hour 4sU incubation and alkylated RNA samples were subjected to SLAM-seq. Samples were duplicated and changed gene expression vs mock-treated cells (P<0.05) was marked in red. […] IGV viewer was used to visualize sequence reads at MYC region (Chr. 8). […] Log 2 fold changes and adjusted P-value of MYC down regulation in both BCBL-1 and BC-1 cells are depicted in underneath of panel.

Test [1] deals with monocyte-derived dendritic cells. As to the kind of experiment: Monocyte-derived dendritic cell live/dead staining and culture images. It is filed as cell-based, human. The protocol: FIG. 14. Effect of MBK50 on CD14+ monocytes. FIG. 14(A) A scheme of the experimental procedure. Monocyte-derived dendritic cells were prepared from magnetic beads sorted CD14+ cells (from PBMC of a healthy donor) after culture for 4 days in the presence of GM-CSF+IL-4 (each 50 ng/ml). Cells were washed and cultured at 1×10^6/ml in a 96 well plate (200 μl/well in triplicates) without or with LPS (100 ng/ml), poly I:C (10 μg/ml), or sCD40L (1 μg/ml) in the presence of MBK50 (16 or 32 μM) or mutant peptide (32 μM) for 2 days. Live cells were determined using live/dead staining followed by flow cytometry analysis. FIG. 14(B) A representative flow profile with the gating strategy for live cells is shown. FIG. 14(C) Averages percentage of live cells for each culture condition are shown. *p<0.05, **p<0.01, ***p<0.001, ****p<0.0001
FIG. 15. Representative images of monocyte derived dendritic cells (MDCs) from two human healthy donors after treatment with MBK50, mutant peptide, or PBS for two days in U-bottom 96 well culture. The diameter of the ring approximately corresponds to the cell volume/numbers in each well.
Similar experiments were also performed with monocyte-derived dendritic cells as a model of human dendritic cells. […] Live cells were determined as shown above using live/dead staining.

As to LSSILQGLYQLDT [MBK50], the “effect on activated proliferating CD3 T cells” value with human CD3 T cells is “preferentially targets actively dividing cells”. In addition, in the test with PEL cells, the “killing of PEL cancer cells” value is “killed the cancer cells”. Besides, the “cellular gene expression (active transcription)” value with BC-1 cells (listed as Wt-peptide) is recorded as “inhibited multiple cellular gene expression”; in the test with BC-1 cells (listed as peptide drug), “strongly inhibited active transcription”. In addition, the “percentage of live cells” value in test [1] (16 or 32 μM, 2 days, PBS, LPS, sCD40L conditions, vs control peptide or PBS) was “significantly reduced”. In test [1] (two days, U-bottom 96 well culture), the “appearance of MDCs in culture” value is “not clumped and were more spread and adhesive”.
